Our source for the TGI values is PubChem BioAssay (NCI).

Among the test systems are KM12 colon; MCF7 breast; U251 CNS; ACHN renal; OVCAR-3 ovarian; DU-145 prostate; SW-620 colon; SR leukemia; HOP-62 NSCLC.
Holding throughout (experiment): NCI anticancer screen, dose series, 48 h

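Assay format: 96-well plates, 48-hour exposure. TGI marks complete inhibition of growth.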 Where only a bound is given, the exact number is not on record here.

For the molecule `CC(=O)Oc1ccc(-c2c(OC(C)=O)c(OC(C)=O)c(-c3ccc(OC(C)=O)c(OC(C)=O)c3)c(OC(C)=O)c2OC(C)=O)cc1`, the TGI in the test with KM12 colon is 28.1 µM; with MCF7 breast, 50.6 µM; with U251 CNS, 36.5 µM; in the test with ACHN renal it was 30.8 µM; in the test with OVCAR-3 ovarian it was 30 µM; in the test on DU-145 prostate, 29.8 µM. The TGI with SW-620 colon was 38.6 µM; with SR leukemia it was 49.7 µM.
Turning to `CC(=O)N/N=C1\NN(C(C)=O)C2(S1)C(=O)Nc1ccccc12` (configuration not stated), the TGI in the test on KM12 colon, in the test with MCF7 breast, with U251 CNS, with ACHN renal, with OVCAR-3 ovarian and in the test with DU-145 prostate was more than 100 µM each time. The TGI in the test on SW-620 colon, in the test with HOP-62 NSCLC and in the test on SR leukemia was more than 100 µM in each case.
Regarding `C=CC(=O)N1C/C(=C\c2ccc(F)cc2)C(=O)/C(=C/c2ccc(F)cc2)C1`, the TGI was determined as 0.434 µM in the test on KM12 colon; 1.42 µM with MCF7 breast; 2.28 µM with U251 CNS; 0.715 µM in the test on ACHN renal; 1.19 µM in the test with OVCAR-3 ovarian; 13.5 µM in the test with DU-145 prostate. Besides, the TGI is more than 100 µM with SW-620 colon, 1.41 µM with HOP-62 NSCLC and more than 100 µM with SR leukemia.
For `O=C1C(=O)C(CCCO)(CCCO)CCCCCCCCC1(CCCO)CCCO`, the TGI with KM12 colon, with MCF7 breast, in the test on U251 CNS, in the test on ACHN renal, with OVCAR-3 ovarian and with DU-145 prostate was more than 100 µM throughout. Moreover, the TGI in the test on SW-620 colon, in the test with HOP-62 NSCLC and with SR leukemia was more than 100 µM each time.
Take `C1CN(C23OC4(N5CCOCC5)C5C6CC(C7C6C4C72)C53)CCO1` (configuration not stated): the TGI in the test on KM12 colon is more than 100 µM; with MCF7 breast it was more than 100 µM; with U251 CNS, more than 100 µM; in the test on ACHN renal it was more than 31.6 µM; in the test on OVCAR-3 ovarian, more than 100 µM; in the test on DU-145 prostate it was more than 100 µM. The TGI with SW-620 colon, with HOP-62 NSCLC and in the test with SR leukemia was more than 100 µM throughout.
Turning to `CCSc1nn(-c2c3ccccc3nc3ccccc23)c(=S)s1`, the TGI in the test on KM12 colon, with MCF7 breast, in the test on U251 CNS, in the test on ACHN renal, in the test with OVCAR-3 ovarian and with DU-145 prostate was more than 100 µM throughout. For the same molecule, the TGI in the test with SW-620 colon, in the test with HOP-62 NSCLC and in the test on SR leukemia was more than 100 µM each time.
`CN(CCc1ccccn1)C(=S)N/N=C/c1ccccn1`: the TGI is 17.1 µM in the test on KM12 colon; more than 100 µM with MCF7 breast; more than 94.9 µM in the test with U251 CNS; 1.41 µM with ACHN renal; 25.9 µM in the test with OVCAR-3 ovarian; more than 100 µM in the test on DU-145 prostate. In addition, the values for the TGI in the test with SW-620 colon, with HOP-62 NSCLC and with SR leukemia were more than 100 µM, 3.48 µM and less than 0.01 µM, respectively.
As for `CC1(C)CN=C(c2ccc3ccccc3c2O)N1`, the TGI in the test with KM12 colon, in the test on MCF7 breast, with U251 CNS, in the test on ACHN renal, with OVCAR-3 ovarian and in the test with DU-145 prostate was more than 100 µM each time. Further, the TGI in the test with SW-620 colon, in the test on HOP-62 NSCLC and with SR leukemia was more than 100 µM throughout.
For the molecule `CC(CN(C)C)C(O)(c1ccccc1)c1ccccc1` (configuration not stated), the TGI in the test on KM12 colon, in the test with MCF7 breast, in the test with U251 CNS, with ACHN renal, in the test with OVCAR-3 ovarian and in the test on DU-145 prostate was more than 100 µM in each case. Besides, the TGI in the test with SW-620 colon, in the test on HOP-62 NSCLC and with SR leukemia was more than 100 µM in each case.
For `CCOC(=O)c1c(C)n(CCN2CCN(C)CC2)c2ccc(OC)cc12`, the TGI with KM12 colon, in the test on MCF7 breast, in the test on U251 CNS, with ACHN renal, in the test with OVCAR-3 ovarian and in the test with DU-145 prostate was more than 100 µM in each case. For the same molecule, the TGI in the test on SW-620 colon is more than 100 µM; in the test with HOP-62 NSCLC it was more than 100 µM; with SR leukemia, 46.3 µM.
Take `CCCNC(=O)Cn1c(-c2ccccc2)cc2ccccc21`: the TGI in the test with KM12 colon, in the test on MCF7 breast, with U251 CNS, in the test with ACHN renal, in the test on OVCAR-3 ovarian and with DU-145 prostate was more than 100 µM each time. Besides, the TGI in the test with SW-620 colon, in the test on HOP-62 NSCLC and in the test on SR leukemia was more than 100 µM each time.
Take `Clc1cccc(Cl)c1C1ON=C(c2ccccc2)N1C12CC3CC(CC(C3)C1)C2` (configuration not stated): the TGI with KM12 colon was 30.8 µM; in the test on MCF7 breast, more than 100 µM; with U251 CNS, more than 100 µM; in the test with ACHN renal it was more than 100 µM; with OVCAR-3 ovarian it was 74.7 µM; in the test on DU-145 prostate, more than 100 µM. Moreover, the TGI in the test with HOP-62 NSCLC and in the test on SR leukemia was more than 100 µM throughout.
As for `CCn1c2ccccc2c2cc(NC(=O)c3c(C)[nH]c(=O)[nH]c3=S)ccc21`, the TGI in the test with KM12 colon is 64.5 µM; in the test with MCF7 breast, more than 100 µM; in the test with U251 CNS, more than 100 µM; in the test with OVCAR-3 ovarian, more than 100 µM; with DU-145 prostate, more than 100 µM; in the test on SW-620 colon, more than 100 µM. Besides, the TGI in the test with HOP-62 NSCLC and in the test on SR leukemia was more than 100 µM each time.
For `CCCS(=O)OC1C(C2COC(C)(C)O2)OC2OC(C)(C)OC21` (configuration not stated), the TGI with KM12 colon amounted to 28.2 µM; in the test on MCF7 breast, 27.3 µM; with U251 CNS, 28.4 µM; with ACHN renal it was 26.9 µM; with OVCAR-3 ovarian, 29.3 µM; in the test with DU-145 prostate it was 47.3 µM. Further, the results for the TGI in the test with SW-620 colon, in the test on HOP-62 NSCLC and with SR leukemia were 32.8 µM, 32.5 µM and 4.34 µM, respectively.
On to `CN1C(C(=O)Nc2ccccn2)=C(O)c2ccccc2S1(=O)=O`, for which the TGI in the test with KM12 colon, in the test with MCF7 breast, in the test with U251 CNS, in the test on ACHN renal, in the test with OVCAR-3 ovarian and with DU-145 prostate was more than 100 µM in each case. In addition, the TGI in the test on SW-620 colon, in the test on HOP-62 NSCLC and in the test with SR leukemia was more than 100 µM throughout.
